Measured values taken from patent US11135224B2, “Methods of sensitizing estrogen receptor positive (ER+) breast cancer cells to endocrine therapy” (New York University, priority 2018, dated 2021).

How the values were obtained:
Type in all cases: cell-based, human
[1] = test system: eIF4E phosphorylation (MNK1); assay: Immunoblot of eIF4E phosphorylation, CGP57380 dose escalation in TamS and TamR cells; settings: escalating doses, 2 hours
Description: Endogenous eIF4E was silenced by shRNA. Cell proliferation was assayed by MTT assay with cells treated with DMSO vehicle or 1 μM 4-OHT. Results are from three independent experiments. […] Endogenous eIF4E was silenced by shRNA. Cell proliferation was assayed by MTT assay using conditions described above for FIG. 4. Results from three independent experiments are shown. FIG. 6C is an immunoblot of TamS and TamR cells treated with escalating doses of CGP57380 (GCP) for 2 hours and lysed in NP-40 buffer; equal protein amounts were probed for P-eIF4E, total eIF4E, and β-actin (loading control). […] Cells were treated with DMSO, 1 μM 4-OHT, or 4-OHT and MNK1 inhibitor CGP. […]
(§1) Immunoblot Studies: In brief, cells were lysed in NP-40 buffer (50 mM HEPES, pH 7.0, 150 mM NaCl, 2 mM EDTA, 25 mM NaF, 25 mM β-glycerophosphate, 2 mM Na3VO4, 1% IGEPAL, and Complete Mini protease inhibitor cocktail tablet+/−EDTA; Roche) or RIPA lysis buffer (1% Triton X-100, 1% sodium deoxycholate, 0.1% SDS, 150 mM NaCl, 50 mM Tris, pH 7.4, 2 mM Na3VO4, 25 mM β-glycerophosphate, 15 mM NaF, and complete protease inhibitor mix; Roche) and lysate cleared by centrifugation at 13,000 rpm for 10 minutes at 4° C. Lysate protein concentration was determined for each sample using BCA assay. […] Quantitation was performed by determination of the integrated density of the bands using ImageJ software. […]

[2] = test system: ATF2 phosphorylation at Thr69/71 (target of RSK, JNK1, p38 MAPK) and eIF4B S422 (target of RSKs); assay: Immunoblot of ATF2 and eIF4B phosphorylation in TamR cells; settings: 10 μM for 6 hours
Description: Hsp70 (loading control). […] Cells were treated with DMSO, 1 μM 4-OH Tam, 4-OH Tam and CGP 57380 (10 μM), or 1 μM 4-OH Tam, CGP57380, and 20 nM RAD001 therapies 24 hours after plating. Treatment was changed every 72 hours. Colonies were scored after 10 days counting only >50 cells/colony. Results are representative of three independent experiments. SEM is shown. […] Results from three independent experiments. Error bars represent SEM (n.s.=not significant). […] Equal amounts of RNA were resolved by sucrose gradient centrifugation and ribosome profiles monitored by UV absorbance 254 nm. Results are representative images of two independent experiments.
as §1

[3] = test system: RUNX2 protein; assay: RUNX2 protein immunoblot after CGP57380; settings: TamS and TamR cells, treated for 6 hours vs untreated
Description: The average of three studies is shown. The immunoblot is representative of three independent studies. […] Equal amounts of RNA were quantified by RT-qPCR and normalized to GAPDH using the −ΔΔCt method. An average of three studies is shown. […] Equal protein amounts were immunoblotted as shown. eEF2 was used as a loading control. […] Cells were treated with DMSO and 1 μM4-OHT and silenced for Runx2 or nonsilencing (NS). The results of three independent experiments are shown. […] Lines represent validated and predicted interactions. […] (**)P<0.01; (***)P<0.001 by t-test.
Immunoblot Studies: In brief, cells were lysed in NP-40 buffer (50 mM HEPES, pH 7.0, 150 mM NaCl, 2 mM EDTA, 25 mM NaF, 25 mM β-glycerophosphate, 2 mM Na3VO4, 1% IGEPAL, and Complete Mini protease inhibitor cocktail tablet+/−EDTA; Roche) or RIPA lysis buffer (1% Triton X-100, 1% sodium deoxycholate, 0.1% SDS, 150 mM NaCl, 50 mM Tris, pH 7.4, 2 mM Na3VO4, 25 mM β-glycerophosphate, 15 mM NaF, and complete protease inhibitor mix; Roche) and lysate cleared by centrifugation at 13,000 rpm for 10 minutes at 4° C. Lysate protein concentration was determined for each sample using BCA assay. […] Quantitation was performed by determination of the integrated density of the bands using ImageJ software.
The biological functions of mRNAs identified as highly eIF4E-dependent in tamoxifen-resistant cells were next assessed. […]

Nc1ncnc2n[nH]c(Nc3ccc(F)cc3)c12 [CGP57380]
concentration for complete inhibition of eIF4E phosphorylation [1]: 10 µM | phosphorylation of ATF2 Thr69/71 and eIF4B S422 [2]: no change in phosphorylation | RUNX2 protein levels [3]: reduced more than threefold
